Values quoted from earlier work as cited in patent US12390418B2, “Biphasic compositions comprising one or both of carbonate and phosphate” (NATURAL EXTRACTION SYSTEMS, LLC, priority 2021, dated 2025).

Conditions: in water at 20 degrees Celsius

O=C(O)O [bicarbonate]
association constant for protonation (Kb): approximately 22 nanomolar

O=C(O)O [carbonate]
association constant for protonation (Kb): approximately 210 micromolar

O=P(O)(O)O [hydrogen phosphate]
association constant for protonation (Kb): approximately 160 nanomolar

phosphate
association constant for protonation (Kb): approximately 23 millimolar
